Laboratory results from ChEMBL document CHEMBL2321738, “Metabolites of the pyrimidine amine preladenant as adenosine a2a receptor antagonists” (ACS Med Chem Lett, 2013).

Target: Adenosine receptor A2a (Homo sapiens, UniProt P29274)
Assay: Binding affinity to human adenosine A2a receptor by competition binding assay

Chain of Adenosine receptor A2a (P29274 whole entry): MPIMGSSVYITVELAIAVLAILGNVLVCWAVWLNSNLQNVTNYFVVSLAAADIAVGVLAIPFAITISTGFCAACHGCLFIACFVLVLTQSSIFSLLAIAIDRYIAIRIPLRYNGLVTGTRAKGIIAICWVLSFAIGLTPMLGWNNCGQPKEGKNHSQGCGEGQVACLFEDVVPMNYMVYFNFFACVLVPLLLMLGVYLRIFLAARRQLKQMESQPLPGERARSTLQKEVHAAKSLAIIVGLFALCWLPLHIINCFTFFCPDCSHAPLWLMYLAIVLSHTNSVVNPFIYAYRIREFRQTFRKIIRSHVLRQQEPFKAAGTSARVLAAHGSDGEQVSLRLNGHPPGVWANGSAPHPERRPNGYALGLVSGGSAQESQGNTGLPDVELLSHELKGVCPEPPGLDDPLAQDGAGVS

COCCOc1ccc(N2CCN(CCn3ncc4c3nc(N)n3nc(C(O)CCC(=O)O)nc43)CC2)cc1 (centres undefined)
Ki: > 1 µM

Nc1nc2c(cnn2CCN2CCN(c3ccc(OCC(=O)O)cc3)CC2)c2nc(-c3ccco3)nn12
Ki: 0.0014 µM

Nc1nc2c(cnn2CCN2CCN(c3ccc(OCC(=O)O)cc3)CC2)c2nc(C(O)CCC(=O)O)nn12 (centres undefined)
Ki: > 1 µM

Nc1nc2c(cnn2CC(=O)O)c2nc(-c3ccco3)nn12
Ki: > 1 µM
